The results in this text go back to the NIST ThermoML archive (doi:10.1021/je700535q).

The data set is described as follows: xn = mol fraction of the nth substance listed. To be noted: 101 kPa, Liquid, x1 = 0.

SMILES strings stand for the structures.

Turning to `c1ccc2nc3ccccc3cc2c1` [acridine] + CCCCCCCCCCCCCC, the binary diffusion coefficient runs as follows: (333.2 K) 1.27e-09 m2/s; (353.2 K) 1.55e-09 m2/s; (373.2 K) 2e-09 m2/s; (393.2 K) 2.4e-09 m2/s; (413.2 K) 2.93e-09 m2/s; (423.2 K) 3.74e-09 m2/s. Besides, the binary diffusion coefficient stood at 3.96e-09 m2/s (453.2 K) and 5.08e-09 m2/s (473.2 K).
`c1ccc2cc3ccccc3cc2c1` [anthracene] + CCCCCCCCCCCCCC: the binary diffusion coefficient by setting is: (333.2 K) 9.4e-10 m2/s; (353.2 K) 1.36e-09 m2/s; (373.2 K) 1.38e-09 m2/s; (393.2 K) 2.03e-09 m2/s; (433.2 K) 3.43e-09 m2/s; (443.2 K) 4.57e-09 m2/s. The binary diffusion coefficient (453.2 K) was determined as 5.56e-09 m2/s.
With `c1ccc2sccc2c1` [benzo[b]thiophene] + CCCCCCCCCCCCCC, the binary diffusion coefficient reads like this: (333.2 K) 1.19e-09 m2/s; (353.2 K) 1.65e-09 m2/s; (373.2 K) 2.1e-09 m2/s; (393.2 K) 2.51e-09 m2/s; (413.2 K) 3.19e-09 m2/s; (423.2 K) 3.83e-09 m2/s. In addition, the binary diffusion coefficient (453.2 K) stood at 4.77e-09 m2/s.
Regarding `c1ccc2c(c1)sc1ccccc12` [dibenzothiophene] + CCCCCCCCCCCCCC, the binary diffusion coefficient by setting is: (333.2 K) 1.06e-09 m2/s; (353.2 K) 1.41e-09 m2/s; (393.2 K) 2.13e-09 m2/s; (413.2 K) 2.61e-09 m2/s; (423.2 K) 3.14e-09 m2/s; (433.2 K) 3.41e-09 m2/s. The binary diffusion coefficient is, setting by setting: (453.2 K) 3.96e-09 m2/s; (463.2 K) 5.01e-09 m2/s.
Take `c1ccc2ccccc2c1` [naphthalene] + CCCCCCCCCCCCCC: the binary diffusion coefficient was determined as 1.03e-09 m2/s (313.2 K); 1.42e-09 m2/s (333.2 K); 1.86e-09 m2/s (353.2 K); 2.28e-09 m2/s (373.2 K); 3.69e-09 m2/s (418.2 K); 4.64e-09 m2/s (433.2 K). For the same compound, the binary diffusion coefficient (453.2 K) stood at 5.56e-09 m2/s.
